In the assay the target is T1, CETP (Homo sapiens, UniProt P11597).
T1 construct: from tissue; host or cells: plasma from a healthy volunteer
T1 sequence (P11597 18-493): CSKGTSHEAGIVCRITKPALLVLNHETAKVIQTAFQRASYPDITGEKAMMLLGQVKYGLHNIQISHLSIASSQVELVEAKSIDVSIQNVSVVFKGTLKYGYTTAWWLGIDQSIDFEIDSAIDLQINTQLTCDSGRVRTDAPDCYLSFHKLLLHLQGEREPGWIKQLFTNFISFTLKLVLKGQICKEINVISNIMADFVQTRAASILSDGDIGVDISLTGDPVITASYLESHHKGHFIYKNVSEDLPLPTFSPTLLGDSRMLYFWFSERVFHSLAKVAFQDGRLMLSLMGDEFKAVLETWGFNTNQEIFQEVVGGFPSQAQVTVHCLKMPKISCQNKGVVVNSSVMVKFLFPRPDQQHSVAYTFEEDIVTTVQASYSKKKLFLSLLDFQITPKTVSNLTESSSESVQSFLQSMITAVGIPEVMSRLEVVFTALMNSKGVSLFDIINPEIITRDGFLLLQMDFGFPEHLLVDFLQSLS
Description: Inhibitory activity against CETP in vitro (fluorescent BODIPY-CE transfer, donor/acceptor microemulsion, human plasma). In kind it is biochemical. Conditions: plasma from a healthy volunteer diluted to 0.64%; preincubation with test solution 37° C. 24 hours, then 3 hours with donor/acceptor microemulsion; fluorescence Ex.550 nm/Em.600 nm; read-out: IC50 (inhibition of CETP activity). The method, then: The inhibitory activity of the compounds of the present invention against CETP was tested in this experiment.
A solution of 1-Palmitoyl-2-oleoyl-sn-glycero-3-phosphocholine (3.5 mg), cholesteryl oleate (3 mg) and triolein (0.7 mg) in chloroform was mixed and lipid was air-dried under nitrogen gas to remove solvent. 1,4-Dioxane (0.25 ml) was then added and the mixture was stirred for dissolution. The resultant lipid solution (0.2 ml) was slowly injected under the surface of Tris-saline-EDTA(TSE) buffer solution [10 mM Tris/HCl (pH 7.4), 0.15M NaCl, 2 mM EDTA] (10 ml) with Hamilton syringe, while sonicating in ice-bath. After 1-hour-sonication in ice-bath, the solution was stored at 4° C.
A solution of egg PC (phosphatidylcholine) (0.33 mg) and BODIPY-CE (0.62 mg) in chloroform was mixed. After removing solvent by air-drying lipid under nitrogen gas, TSE buffer solution (3 ml) was added and the solution was sonicated in ice-bath. This solution was filtered to sterilize through 0.22 μm filter and stored at 4° C.
A test solution was prepared using dimethyl sulfoxide as a solvent. Plasma from a healthy volunteer was diluted to 0.64% with TSE buffer, and to the resultant plasma solution (187 μl) was added a test solution (3 μl) or the solvent alone followed by incubation at 37° C. for 24 hours. After addition of TSE buffer solution (10 μl) containing 5% donor micro-emulsion and 5% acceptor microemulsion, the mixture was incubated at 37° C. for 3 hours. […] CETP activity was defined as the difference between the measurements obtained before incubation and after incubation. The decreasing rate of the difference in the sample was defined as the inhibition rate of CETP activity. IC50 for each sample was calculated from the inhibition rate of CETP activity.

Experimental findings from US8158640B2, “Tetrahydroquinoline derivatives and a process for preparing the same” (Mitsubishi Tanabe Pharma Corporation, priority 2005, dated 2012) are described below.

As usually defined, the IC50 is the concentration needed to halve the response being measured.

Consider “(2R,4S)-4-{[3,5-bis(trifluoromethyl)benzyl]-[5-(morpholin-4-yl)-pyrimidin-2-yl]}amino-2-ethyl-6-trifluoromethyl-3,4-dihydro-2H-quinoline-1-carboxylic acid ethyl ester [Example 1]”, for which the IC50 came out at 0.17 nM.
Under “(2R,4S)-4-{[3,5-bis(trifluoromethyl)-benzyl]-(5-carboxypyrimidin-2-yl)}amino-2-ethyl-6-trifluoromethyl-3,4-dihydro-2H-quinoline-1-carboxylic acid ethyl ester [Example 16]” stands 4.2 nM; under `CCOC(=O)N1c2ccc(C(F)(F)F)cc2[C@@H](N(Cc2cc(C(F)(F)F)cc(C(F)(F)F)c2)c2ccc(OCCCC(=O)O)cn2)C[C@H]1CC` [Example 231, (2R,4S)-4-{[3,5-bis(trifluoromethyl)benzyl]-[5-(3-carboxypropoxy)pyridin-2-yl]}amino-2-ethyl-6-trifluoromethyl-3,4-dihydro-2H-quinoline-1-carboxylic acid ethyl ester], 0.53 nM.
Regarding “(2R,4S)-4-{[3,5-bis(trifluoromethyl)benzyl]-[5-(morpholin-4-yl)pyrimidin-2-yl]}amino-2-ethyl-6-trifluoromethyl-3,4-dihydro-2H-quinoline-1-carboxylic acid 5-carboxypentyl ester [Example 275]”, the half-inhibitory concentration (IC50) is 0.18 nM.
Under `CCOC(=O)N1c2ccc(C(F)(F)F)cc2[C@@H](N(Cc2cc(C#N)cc(C(F)(F)F)c2)c2ncc(N3CCC(C(=O)O)CC3)cn2)C[C@H]1CC` [Example 235, (2R,4S)-4-{[5-(4-carboxypiperidin-1-yl)pyrimidin-2-yl]-(3-cyano-5-trifluoromethylbenzyl)}amino-2-ethyl-6-trifluoromethyl-3,4-dihydro-2H-quinoline-1-carboxylic acid ethyl ester] stands 2.7 nM; under “(2R,4S)-4-{[3,5-bis(trifluoromethyl)benzyl]-[5-(2-methoxyethoxy)pyrimidin-2-yl]}amino-2-ethyl-6-trifluoromethyl-3,4-dihydro-2H-quinoline-1-carboxylic acid 2-carboxyethyl ester [Example 291]”, 0.32 nM.
With “(2R*,4S*)-4-{[3,5-bis(trifluoromethyl)benzyl]-[(5-morpholin-4-yl)pyrimidin-2-yl]}amino-2-ethyl-6-trifluoromethyl-3,4-dihydro-2H-quinoline-1-carboxylic acid 2-hydroxyethyl ester [Example 174]”, the concentration for half-maximal inhibition (IC50) worked out at 0.23 nM.
The value for `CCOC(=O)N1c2ccc(C(F)(F)F)cc2[C@@H](N(Cc2cc(C(F)(F)F)cc(C(F)(F)F)c2)c2ncc(N(C)CCC(=O)O)cn2)C[C@H]1CC` [Example 127] was 0.89 nM; that for `CCOC(=O)N1c2ccc(C(F)(F)F)cc2C(N(Cc2cc(C(F)(F)F)cc(C(F)(F)F)c2)c2ncc(OCCCCC(=O)O)cn2)CC1CC` (stereo not drawn) [Example 198] was 0.66 nM.
